Patent US20240238218A1, “[…] A […] ACTIVE COMPOUND AND METHOD OF PREPARATION THEREOF” (GW Research Limited, priority 2021, published 2024)

Key:
[1] = system: mouse model of generalised seizure (tonic hind limb extensor convulsions); experiment: Maximal electroshock seizure threshold (MEST) test in the mouse
Procedure: The efficacy of the novel resorcinol according to the compound of Formula I was tested in a mouse model of generalised seizure, the maximal electroshock seizure threshold (MEST) test.
In the MEST test the ability of a drug to alter the seizure threshold current required to induce hind limb tonic extensor convulsions is measured according to an “up and down” method of shock titration (Kimball et al., 1957). An increase in seizure threshold is indicative of anti-convulsant effect.
The ability of a test compound to alter the stimulus intensity, expressed as current (mA), required to induce the presence of tonic hind limb extensor convulsions, is assessed in the MEST.
All animals were weighed at the beginning of the study and randomly assigned to treatment groups based on a mean distribution of body weight across groups.
The first animal within a treatment group was given a shock at the expected or estimated CC50 current. For subsequent animals, the current was lowered or raised depending on the convulsions outcome from the preceding animal, in intervals of 5 mA.
Data generated from each treatment group were used to calculate the CC50±SEM values for the treatment group.
Vehicle: (5% ethanol, 5% Kolliphor® EL, 90% Saline) was prepared as follows: 2 mL of ethanol, 2 mL of Kolliphor® EL were warmed to 60° C., in 36 mL of saline (1:1:18).
The test compound, described herein as Compound I, is as shown as Formula I. Test compound was administered at 1, 5, 20, 50, 100 and 200 mg/kg (i.p.) in a 1:2:17 ethanol:solutol:0.9% saline formulation.
The data for each treatment group were recorded as the number of +'s and 0's at each current level employed and this information is then used to calculate the CC50 value (current required for 50% of the animals to show seizure behaviour)±standard error.
Test compound effects were also calculated as percentage change in CC50 from the vehicle control group.
Significant difference between drug-treated animals and controls were assessed according to Litchfield and Wilcoxon (1949).

[2] = system: DBA/2 mice; experiment: DBA/2 mouse audiogenic seizure test; assay type: in vivo; conditions: for Clonic convulsion, Latency (s) Median / Tonic extension, Latency (s) Median / Wild running, Latency (s) Median: bell maximum 60 seconds; for Mice with a rectal temperature below 35.0° C / Tremor noted (number of mice): group of 10
Excerpt: The DBA/2 audiogenic seizure test, which detects anticonvulsant activity, follows that described by Dürmüller et al. (NeuroReport, vol. 4, no. 6, pages 683-686, 1993).
60 male DBA/2 mice (3-4 weeks old) were included in the experiment (weight range 8-11 g at the beginning of the experiment). Animals were acclimatized to the test facility for 1 day after delivery and randomly housed in groups of 5 in macrolon cages on wood litter with free access to food and water.
Mice were individually transferred (at 3-5 minutes intervals) from the preparation room into an adjacent experimental room and body temperature was measured using a rectal thermometer. Immediately after, they were placed in a Plexiglas jar (Diameter=40 cm; Height=35 cm) mounted with an electric bell. Upon activating the bell, the occurrences and latencies to wild running fits, clonic and tonic seizures were measured. Deaths were also recorded. The bell was activated until a tonic seizure occured or for a maximum of 60 seconds.
The experiment included 6 groups (10 mice were studied per group). Experimenters were blinded to the treatment groups.
The test substance was evaluated at 4 doses, administered i.p. (10 mL/kg) 30 or 60 minutes before the test, and compared with a vehicle control group. Doses and pre-treatment times were based on previous pharmacokinetic data.
Test compound: Compound I dissolved in 5% ethanol, 10% Kolliphor HS15, 85% physiological saline.
Vehicle control: 5% ethanol, 10% Kolliphor HS15, 85% physiological saline.
Reference: Valproate (180 mg/kg), dissolved in 5% ethanol, 10% Kolliphor HS15, 85% physiological saline.
Quantitative data (latencies) with the test substance were analyzed by comparing treated groups with vehicle control using Kruskal-Wallis test followed by Dunn's multiple comparisons test. Quantitative data with the reference substance were analyzed using Mann-Whitney U test.
Quantal data (frequencies) were analyzed by comparing treated groups with vehicle control using Fisher's Exact Probability tests.

[3] = 20 mg/kg i.p., 30 min post dose
[4] = 50 mg/kg i.p., 30 min post dose
[5] = 100 mg/kg i.p., 60 min post dose
[6] = 200 mg/kg i.p., 60 min post dose
[7] = 20 mg/kg i.p., 30 min before the test
[8] = 50 mg/kg i.p., 30 min before the test
[9] = 100 mg/kg i.p., 60 min before the test
[10] = 100 mg/kg i.p., 60 min before the test, mice with rectal temperature below 35.0° C removed
[11] = 200 mg/kg i.p., 60 min before the test
[12] = 200 mg/kg i.p., 60 min before the test, mice with rectal temperature below 35.0° C removed

`C=C(C)[C@@H]1CC(O)C(C)=C[C@H]1c1c(O)cc(Br)cc1O` (single isomer, unassigned) [Compound I] was tested, and the “% change from vehicle (CC50)” value ([1]; 1 mg/kg i.p., 15 min post dose) was 32%, the “CC50 +/− SEM” value ([1]; 1 mg/kg i.p., 15 min post dose) was 31.3 ± 1.5 mA and the “% change from vehicle (CC50)” value ([1]; 5 mg/kg i.p., 15 min post dose) was 45%. The “CC50 +/− SEM” value ([1]; 5 mg/kg i.p., 15 min post dose) was 34.2 ± 1.5 mA, the “% change from vehicle (CC50)” value [1, 3] was 202% and the “CC50 +/− SEM” value [1, 3] was 71.5 ± 1.0 mA. For the same compound, the “% change from vehicle (CC50)” value [1, 4] was 650%, the “CC50 +/− SEM” value [1, 4] was 177.5 ± 0.7 mA and the “% change from vehicle (CC50)” value [1, 5] was 1157%. For the same compound, the “CC50 +/− SEM” value [1, 5] was 297.5 ± 0.7 mA, the “% change from vehicle (CC50)” value [1, 6] was greater than 1168% and the “CC50 +/− SEM” value [1, 6] was greater than 300.0 mA. For the same compound, the “Clonic convulsion, Latency, Compared with Vehicle (i.p.) %” value (“Clonic convulsion, Latency … (i.p.) %” below) [2, 7] was “+44%”, the “Clonic convulsion, Presence, %” value [2, 7] was 70% and the “Clonic convulsion, Presence, Compared with Vehicle (i.p.) %” value (“Clonic convulsion, Presence … (i.p.) %” for short) [2, 7] was −30%. The “Clonic convulsion, Presence, Total” value [2, 7] was 7/10, the “Death, Presence, %” value [2, 7] was 20% and the “Death, Presence, Compared with Vehicle (i.p.) %” value (shortened to “Death, Presence … (i.p.) %”) [2, 7] was −50%. For the same compound, the “Death, Presence, Total” value [2, 7] was 2/10, the “Tonic extension, Latency, Compared with Vehicle (i.p.) %” value (“Tonic extension, Latency … (i.p.) %” below) [2, 7] was “+461%” and the “Tonic extension, Presence, %” value [2, 7] was 40%. The “Tonic extension, Presence, Compared with Vehicle (i.p.) %” value (shortened to “Tonic extension, Presence … (i.p.) %”) [2, 7] was −60%, the “Tonic extension, Presence, Total” value [2, 7] was 4/10 and the “Wild running, Latency, Compared with Vehicle (i.p.) %” value (from here on “Wild running, Latency … (i.p.) %”) [2, 7] was “+55%”. For the same compound, the “Wild running, Presence, %” value [2, 7] was 80%, the “Wild running, Presence, Compared with Vehicle (i.p.) %” value (“Wild running, Presence … (i.p.) %” for short) [2, 7] was −20% and the “Wild running, Presence, Total” value [2, 7] was 8/10. The “Clonic convulsion, Latency (s) Median” value [2, 7] was 9.5 s, the “Tonic extension, Latency (s) Median” value [2, 7] was 60.0 s and the “Wild running, Latency (s) Median” value [2, 7] was 5.1 s. The “Clonic convulsion, Latency … (i.p.) %” value [2, 8] was “+809%”, the “Clonic convulsion, Presence, %” value [2, 8] was 40% and the “Clonic convulsion, Presence … (i.p.) %” value [2, 8] was −60%. For the same compound, the “Clonic convulsion, Presence, Total” value [2, 8] was 4/10, the “Death, Presence, %” value [2, 8] was 0% and the “Death, Presence … (i.p.) %” value [2, 8] was −100%. The “Death, Presence, Total” value [2, 8] was 0/10, the “Tonic extension, Latency … (i.p.) %” value [2, 8] was “+461%” and the “Tonic extension, Presence, %” value [2, 8] was 0%. The “Tonic extension, Presence … (i.p.) %” value [2, 8] was −100%, the “Tonic extension, Presence, Total” value [2, 8] was 0/10 and the “Wild running, Latency … (i.p.) %” value [2, 8] was “+924%”. The “Wild running, Presence, %” value [2, 8] was 50%, the “Wild running, Presence … (i.p.) %” value [2, 8] was −50% and the “Wild running, Presence, Total” value [2, 8] was 5/10. The “Clonic convulsion, Latency (s) Median” value [2, 8] was 60.0 s, the “Tonic extension, Latency (s) Median” value [2, 8] was 60.0 s and the “Wild running, Latency (s) Median” value [2, 8] was 33.8 s. The “Clonic convulsion, Latency … (i.p.) %” value [2, 9] was “+809%”, the “Clonic convulsion, Presence … (i.p.) %” value [2, 9] was −100% and the “Death, Presence … (i.p.) %” value [2, 9] was −100%. For the same compound, the “Tonic extension, Latency … (i.p.) %” value [2, 9] was “+461%”, the “Tonic extension, Presence … (i.p.) %” value [2, 9] was −100% and the “Wild running, Latency … (i.p.) %” value [2, 9] was “+1718%”. For the same compound, the “Wild running, Presence … (i.p.) %” value [2, 9] was −100%, the “Clonic convulsion, Latency (s) Median” value [2, 9] was 60.0 s and the “Tonic extension, Latency (s) Median” value [2, 9] was 60.0 s. For the same compound, the “Wild running, Latency (s) Median” value [2, 9] was 60.0 s, the “Clonic convulsion, Presence, %” value [2, 10] was 0% and the “Clonic convulsion, Presence, Total” value [2, 10] was 0/6. For the same compound, the “Death, Presence, %” value [2, 10] was 0%, the “Death, Presence, Total” value [2, 10] was 0/6 and the “Tonic extension, Presence, %” value [2, 10] was 0%. The “Tonic extension, Presence, Total” value [2, 10] was 0/6, the “Wild running, Presence, %” value [2, 10] was 0% and the “Wild running, Presence, Total” value [2, 10] was 0/6. The “Mice with a rectal temperature below 35.0° C” value ([2]; 100 mg/kg i.p.) was “Four mice”, the “Tremor noted (number of mice)” value ([2]; 100 mg/kg i.p.) was 5 mice and the “Clonic convulsion, Latency … (i.p.) %” value [2, 11] was “+809%”. The “Clonic convulsion, Presence … (i.p.) %” value [2, 11] was −80%, the “Death, Presence … (i.p.) %” value [2, 11] was −100% and the “Tonic extension, Latency … (i.p.) %” value [2, 11] was “+461%”. The “Tonic extension, Presence … (i.p.) %” value [2, 11] was −100%, the “Wild running, Latency … (i.p.) %” value [2, 11] was “+1718%” and the “Wild running, Presence … (i.p.) %” value [2, 11] was −80%. The “Clonic convulsion, Latency (s) Median” value [2, 11] was 60.0 s, the “Tonic extension, Latency (s) Median” value [2, 11] was 60.0 s and the “Wild running, Latency (s) Median” value [2, 11] was 60.0 s. For the same compound, the “Clonic convulsion, Presence, %” value [2, 12] was 33%, the “Clonic convulsion, Presence, Total” value [2, 12] was 2/6 and the “Death, Presence, %” value [2, 12] was 0%. For the same compound, the “Death, Presence, Total” value [2, 12] was 0/6, the “Tonic extension, Presence, %” value [2, 12] was 0% and the “Tonic extension, Presence, Total” value [2, 12] was 0/6. For the same compound, the “Wild running, Presence, %” value [2, 12] was 33%, the “Wild running, Presence, Total” value [2, 12] was 2/6 and the “Mice with a rectal temperature below 35.0° C” value ([2]; 200 mg/kg i.p.) was “Four mice”. The “Tremor noted (number of mice)” value ([2]; 200 mg/kg i.p.) was 3 mice and the “Effect on the number of deaths” value ([2]; any doses (20, 50, 100, 200 mg/kg i.p.)) was “did not affect the number of deaths at any doses”.
